In US9464326B2, “Total and phosphorylated IL-1 receptor-associated kinase-1 and IL-1 receptor-associated kinase-4 as a biomarker for cancer progression and chemotherapy resistance” (University of Maryland, Baltimore, priority 2012, dated 2016):

How the values were obtained:
patient T-ALL cells = assay: Western blot of patient T-ALL samples from treated NSG mice; type: in vivo
Description: CCRF-CEM (2×10^6) cells were injected intravenously (i.v.) into female NOD.Cg-Prkdc^scid Il2rg^tm1WJl/SzJ IL2RG (NSG) mice (Jackson Laboratories, Bar Harbor, Me.). […] In some experiments mice were injected i.v. with TLR1-TLR2 ligand (2.5 μg) two days after injecting cells. In other experiments mice were injected intraperitoneally (i.p.) with IRAK-1,-4 inhibitor (10 mg/kg) 3, 6, and 9 days (CCRF-CEM cells) or 7, 10, and 13 days (patient T-ALL cells) after detecting CD7^+ T-ALL cells in circulation. The numbers of T-ALL cells in the bone marrow, spleen, liver, and in circulation were determined by staining cells with anti-human CD7 and/or CD5. To compare T-ALL numbers between groups, 10 μl of calibration microbeads (BD Pharmingen) were added to 50 μl of blood (or marrow or spleen suspensions) and the flow cytometry instrument gates were set to count a constant number of beads.
The levels of p-mTOR and p-p65 were also examined in patient T-ALL samples obtained from mice treated with IRAK-1,-4 inhibitor or DMSO.

Malme-3M melanoma cells = assay: Apoptosis by annexin-V/PI flow cytometry in Malme-3M; type: cell-based, human
Description: FIG. 8. IRAK-1,-4 inhibition sensitized melanoma cells to vinblastine-mediated cytotoxicity. (A) A375 and Malme-3M melanoma cells were cultured with or without 2.5 μM of IRAK-1,-4 and in the presence varying concentrations of vinblastine, cisplatin or 5′ Fluorouracil. Forty-eight hours later apoptosis was evaluated by staining cells with annexin-V and propidium iodide and analyzed by flow cytometry. (B) A375 cells were transfected via electroporation with siRNA-IRAK-1,-4. IRAK-1 protein levels were examined by Western blotting. […], A375-psiRNA-hIRAK-1, A375-psiRNA-hIRAK-4, or cells expressing both psiRNA-hIRAK-1 and -4 were cultured in the presence of vinblastine (100 nmol/L) for 48 hours and apoptosis was examined by flow cytometry. (C) A375 melanoma cells were cultured in the presence of vehicle alone (DMSO) or various concentrations of IRAK-1,-4. Forty-eight hours later cell lysates were used to analyze the expression of levels of cleaved PARP or caspase-3 by Western blots. (D) A375 melanoma cells were cultured with or without 2.5 μM of IRAK.-1,-4 and in the presence or absence of vinblastine for 48 hrs. PARP and caspase-3 levels were determined by Western blot.
The TLR1-TLR2 ligand tripalmitoyl-S-(bis(palmitoyloxy)propyl)-Cys-Ser-(Lys)3-Lys (Pam3Cys) was purchased from Invivogen (San Diego, Calif., USA). […] In some experiments cells were treated with the indicated concentrations of IRAK.-1,-4 inhibitor and vinblastine, cisplatin, and 5-fluorouracil (Sigma-Aldrich, St. Louis, Mo.), and apoptosis was quantitated by flow cytometry after staining cells with FITC-labeled annexin-V (BD Pharmingen, San Jose, Calif.) and propidium iodide (PI; Sigma-Aldrich).

Loucy = assay: Proliferation (3H-thymidine) of Loucy; type: cell-based, human
From the text: (§1) CCRF-CEM, CEM/C1, CEM/C2, CEM-C7, Jurkat, Loucy, Molt-4, HSB-2, SUP-T1, Hut 78, HH, Hut 102, MO, and H9 T-leukemia and T-lymphoma cell lines were purchased from the American Type Culture Collection (Manassas, Va., USA). All of the cell lines were initially expanded and cryopreserved within one month of receipt. Cells were typically used for 6 months at which time a fresh vial of cryopreserved cells was used. Total T cells from healthy donors were isolated via negative selection followed by positive selection using a CD3+ selection kit (Invitrogen, Carlsbad, Calif.). T cells were isolated from patients with T-ALL bone marrow or peripheral blood samples containing more than 70% leukemia cells using a CD2+ isolation kit (STEMCELL Technologies, Vancouver, Canada). All tissues were collected under institutional IRB-approved protocols and all participants gave written informed assent/consent. For in vitro experiments, T-ALL cells were cultured in AIM-V medium supplemented with 20% human AB serum in the presence of recombinant human stem cell factor (50 ng/mL; Amgen, Thousand Oaks, Calif.), insulin (20 nM; Sigma-Aldrich, St Louis, Mo., USA) and IL-7 (50 ng/mL; R&D Systems, Minneapolis, Minn., USA). In other experiments, protein lysate was collected using the Full Moon Biosystems (Sunnyvale, Calif., USA) buffer prior to protein examination by western blot or protein array.
(§2) Cells were cultured in a 96-well plate (Corning Costar, Corning, N.Y., USA) with various concentrations of TLR ligands 1-9, starting at 10 μg/ml, in a final volume of 200 ul. TLR ligands were diluted 2-fold. Cell lines (25-40×10^3/well) were cultured for 54 hours, whereas fresh patient-derived T-ALL cells (200×10^3/well) were cultured for 30 hours prior to adding [^3H]-thymidine for 18 hours. After this time point, cells were harvested with a Packard Filter-Mate-96 cell harvester (Perkin Elmer, Waltham, Mass., USA) and counted on Packard Top Count-NXT (Perkin Elmer, Waltham, Mass., USA). Results were expressed as average counts per minute (cpm). In some experiments CCRF-CEM cells were pre-treated with TLR1-TLR2 ligand (Pam3CysK4; 2.5 ug/ml) for 48 hrs, washed, and then cultured in the presence of varying concentrations of FBS. Forty-eight hours later, proliferation (±SD) was determined by ^3H-thymidine incorporation. Alternatively, apoptosis was measured by flow cytometry after staining cells with Annexin-V (BD Pharmingen, San Diego, Calif., USA) and propidium iodide (Sigma). Cell number was counted under microscopy by staining cells with trypan blue. […]

Molt-4 = assay: Proliferation (3H-thymidine) of Molt-4; type: cell-based, human; conditions: 3H-thymidine uptake, 72 h
From the text: as §1, with “In other experiments, protein lysate was collected using the Full Moon Biosystems (Sunnyvale, Calif., USA) buffer prior to protein examination by western blot or protein array.” left out
as §2, with “TLR ligands were diluted 2-fold. Cell lines (25-40×10^3/well) were cultured for 54 hours, whereas fresh patient-derived T-ALL cells (200×10^3/well) were cultured for 30 hours prior to adding [^3H]-thymidine for 18 hours.” left out, “In some experiments CCRF-CEM cells were pre-treated with TLR1-TLR2 ligand (Pam3CysK4; 2.5 ug/ml) for 48 hrs, washed, and then cultured in the presence of varying concentrations of FBS.” left out

HSB-2 = assay: Proliferation (3H-thymidine) of HSB-2; type: cell-based, human
From the text: as §1
Cells were cultured in a 96-well plate (Corning Costar, Corning, N.Y., USA) with various concentrations of TLR ligands 1-9, starting at 10 μg/ml, in a final volume of 200 ul. TLR ligands were diluted 2-fold. Cell lines (25-40×10^3/well) were cultured for 54 hours, whereas fresh patient-derived T-ALL cells (200×10^3/well) were cultured for 30 hours prior to adding [^3H]-thymidine for 18 hours. After this time point, cells were harvested with a Packard Filter-Mate-96 cell harvester (Perkin Elmer, Waltham, Mass., USA) and counted on Packard Top Count-NXT (Perkin Elmer, Waltham, Mass., USA). Results were expressed as average counts per minute (cpm). In some experiments CCRF-CEM cells were pre-treated with TLR1-TLR2 ligand (Pam3CysK4; 2.5 ug/ml) for 48 hrs, washed, and then cultured in the presence of varying concentrations of FBS. Forty-eight hours later, proliferation (±SD) was determined by ^3H-thymidine incorporation. Alternatively, apoptosis was measured by flow cytometry after staining cells with Annexin-V (BD Pharmingen, San Diego, Calif., USA) and propidium iodide (Sigma). Cell number was counted under microscopy by staining cells with trypan blue.
The following TLR ligands were purchased from Invivogen (San Diego, Calif., USA): tripalmitoyl-S-(bis(palmitoyloxy)propyl)-Cys-Ser-(Lys)3-Lys (TLR1-2); Poly I:C (TLR3); ultrapure S. Minnesota Lipopolysaccharide (TLR4); S. typhimurium flagellin (TLR5); FSL-1 (TLR2/6); Imiquimod (TLR7); ssRNA40/Lyovec (TLR8); CpG-ODN 2006 (TLR9).

Primary T-cells Non-Act = assay: Proliferation (3H-thymidine) of non-activated primary T-cells; type: cell-based, human; conditions: 3H-thymidine uptake, 72 h
From the text: as §1, with “In other experiments, protein lysate was collected using the Full Moon Biosystems (Sunnyvale, Calif., USA) buffer prior to protein examination by western blot or protein array.” left out
as §2, with “TLR ligands were diluted 2-fold. Cell lines (25-40×10^3/well) were cultured for 54 hours, whereas fresh patient-derived T-ALL cells (200×10^3/well) were cultured for 30 hours prior to adding [^3H]-thymidine for 18 hours.” left out, “In some experiments CCRF-CEM cells were pre-treated with TLR1-TLR2 ligand (Pam3CysK4; 2.5 ug/ml) for 48 hrs, washed, and then cultured in the presence of varying concentrations of FBS.” left out

Molecule	p-mTOR levels (patient T-ALL cells; patient sample #810 (barely detectable p-IRAK-4), treated in vivo)	reduction of p-p65 levels (patient T-ALL cells; patient samples #825 and #828 from treated NSG mice)	apoptosis with 5′-fluorouracil (Malme-3M melanoma cells; Malme3M, IRAK-1,-4 inhibitor with 0-100 nmol/L 5′-fluorouracil)	sensitivity to vinblastine (apoptosis) (Malme-3M melanoma cells; Malme-3M, 2.5 μmol/L IRAK-1,-4 inhibitor with 0-200 nmol/L vinblastine, 48 h)	cisplatin's cytotoxicity (Malme-3M melanoma cells; Malme-3M, IRAK-1,-4 inhibitor with 0-50 nmol/L cisplatin)	Proliferative effects of TLR ligands (Loucy; 3H-thymidine uptake, 72 h)	TLR ligand concentration in parentheses below the symbol (Loucy; no unit in table (μg/ml))	Proliferative effects of TLR ligands (Molt-4)	Proliferative effects of TLR ligands (HSB-2; 3H-thymidine uptake, 72 h)	TLR ligand concentration in parentheses below the symbol (HSB-2; no unit in table (μg/ml))	Proliferative effects of TLR ligands (Primary T-cells Non-Act)
O=C(Nc1nc2ccccc2n1CCN1CCOCC1)c1cccc([N+](=O)[O-])c1 [IRAK-1,-4 inhibitor]	did not show changes	two-fold	appeared to enhance apoptosis	increased sensitivity	did not increase						
tripalmitoyl-S-(bis(palmitoyloxy)propyl)-Cys-Ser-(Lys)3-Lys [Pam3Cysk4]						+ (enhanced proliferation by 25% or greater)	(2.5)	∘	− (reduced proliferation)	(5)	∘
